Source: paper PMC7026418, “The kinase polypharmacology landscape of clinical PARP inhibitors” (Scientific Reports, 2020)
Where two headings read alike, the source gives them in different places. Blank lines part the entries; values can stand above or below the molecule they belong to.

Tests used:
Test in all cases: biochemical
Parameters in all cases: DiscoveRx KINOMEscan active site-directed competition binding; percent of control kinase bound to immobilised ligand
ABL2 = ABL2 (Homo sapiens, UniProt P42684)
AXL = molecular target: T1, AXL (Homo sapiens, UniProt P30530)
T1 sequence (P30530 1-894): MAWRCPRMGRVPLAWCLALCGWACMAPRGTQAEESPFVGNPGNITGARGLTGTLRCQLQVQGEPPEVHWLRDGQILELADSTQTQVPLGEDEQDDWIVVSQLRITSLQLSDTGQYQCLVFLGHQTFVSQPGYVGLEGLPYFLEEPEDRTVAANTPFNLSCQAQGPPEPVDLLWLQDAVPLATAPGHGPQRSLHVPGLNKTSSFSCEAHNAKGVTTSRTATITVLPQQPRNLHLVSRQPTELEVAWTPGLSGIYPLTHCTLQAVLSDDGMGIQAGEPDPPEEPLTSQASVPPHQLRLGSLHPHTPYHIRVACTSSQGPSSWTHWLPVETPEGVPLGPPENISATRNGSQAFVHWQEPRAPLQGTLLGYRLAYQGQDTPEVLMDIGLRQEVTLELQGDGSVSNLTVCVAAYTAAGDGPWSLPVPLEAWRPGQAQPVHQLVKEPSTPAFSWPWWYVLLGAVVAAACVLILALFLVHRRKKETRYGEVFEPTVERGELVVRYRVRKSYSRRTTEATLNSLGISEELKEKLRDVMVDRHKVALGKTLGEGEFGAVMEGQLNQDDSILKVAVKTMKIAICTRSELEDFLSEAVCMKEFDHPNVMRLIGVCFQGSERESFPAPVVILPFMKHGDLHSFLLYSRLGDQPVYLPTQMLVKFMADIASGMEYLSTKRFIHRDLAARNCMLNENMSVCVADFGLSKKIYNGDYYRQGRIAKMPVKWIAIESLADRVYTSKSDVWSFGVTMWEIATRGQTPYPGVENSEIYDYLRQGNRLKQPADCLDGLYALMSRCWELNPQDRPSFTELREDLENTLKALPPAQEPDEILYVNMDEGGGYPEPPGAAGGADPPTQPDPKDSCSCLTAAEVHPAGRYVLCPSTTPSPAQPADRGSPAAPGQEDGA

BRAF(V600E) = BRAF(V600E) (Homo sapiens, UniProt P15056, V600E)
CHEK2 = CHEK2 (Homo sapiens, UniProt O96017)
ICK = molecular target: T2, ICK (Homo sapiens, UniProt Q9UPZ9)
T2 construct: gene CILK1
T2 sequence (Q9UPZ9 1-632): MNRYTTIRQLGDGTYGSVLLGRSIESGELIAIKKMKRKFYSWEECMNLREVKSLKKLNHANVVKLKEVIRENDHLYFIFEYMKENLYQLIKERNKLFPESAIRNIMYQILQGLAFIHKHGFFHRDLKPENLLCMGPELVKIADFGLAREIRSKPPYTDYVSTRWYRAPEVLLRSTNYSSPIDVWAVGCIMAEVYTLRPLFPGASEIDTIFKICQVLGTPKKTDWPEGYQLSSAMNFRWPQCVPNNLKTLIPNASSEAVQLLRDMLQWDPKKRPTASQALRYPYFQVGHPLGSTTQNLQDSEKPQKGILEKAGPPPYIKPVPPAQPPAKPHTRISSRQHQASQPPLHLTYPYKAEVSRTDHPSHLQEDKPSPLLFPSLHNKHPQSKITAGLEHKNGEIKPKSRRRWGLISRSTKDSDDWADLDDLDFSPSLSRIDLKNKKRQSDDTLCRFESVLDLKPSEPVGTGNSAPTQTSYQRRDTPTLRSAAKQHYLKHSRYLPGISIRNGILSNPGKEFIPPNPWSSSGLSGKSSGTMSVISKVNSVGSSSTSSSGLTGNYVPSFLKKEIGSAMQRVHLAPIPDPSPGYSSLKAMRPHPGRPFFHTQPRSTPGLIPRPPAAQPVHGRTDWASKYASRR

MET(M1250T) = MET(M1250T) (Homo sapiens, UniProt P08581, M1250T)
NLK = molecular target: T3, NLK (Homo sapiens, UniProt Q9UBE8)
T3 sequence (Q9UBE8 1-527): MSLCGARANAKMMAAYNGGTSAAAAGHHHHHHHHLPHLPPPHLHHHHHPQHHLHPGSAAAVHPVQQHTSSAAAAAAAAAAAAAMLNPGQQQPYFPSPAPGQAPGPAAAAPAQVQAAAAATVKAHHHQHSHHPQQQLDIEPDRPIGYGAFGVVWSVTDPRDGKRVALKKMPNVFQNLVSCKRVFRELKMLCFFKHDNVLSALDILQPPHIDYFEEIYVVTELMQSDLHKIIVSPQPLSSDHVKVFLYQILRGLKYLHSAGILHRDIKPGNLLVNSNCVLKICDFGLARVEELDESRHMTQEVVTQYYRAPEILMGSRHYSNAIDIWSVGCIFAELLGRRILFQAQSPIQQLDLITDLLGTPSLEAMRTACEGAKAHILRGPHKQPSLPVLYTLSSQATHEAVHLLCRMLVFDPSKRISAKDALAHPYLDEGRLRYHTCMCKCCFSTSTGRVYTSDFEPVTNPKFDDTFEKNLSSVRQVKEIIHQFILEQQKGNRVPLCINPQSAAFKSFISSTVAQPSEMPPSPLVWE

ROCK2 = ROCK2 (Homo sapiens, UniProt O75116)
SIK = molecular target: T4, SIK (Homo sapiens, UniProt P57059)
T4 construct: gene SIK1

[1] = read-out: Niraparib (MK-4827) / %Ctrl @ 10000nM
[2] = read-out: Olaparib / %Ctrl @ 10000nM
[3] = read-out: Rucaparib / %Ctrl @ 10000nM, binding competition, % of control
[4] = read-out: Talazoparib (BMN 673) / %Ctrl @ 10000nM

T4 sequence (P57059 whole entry): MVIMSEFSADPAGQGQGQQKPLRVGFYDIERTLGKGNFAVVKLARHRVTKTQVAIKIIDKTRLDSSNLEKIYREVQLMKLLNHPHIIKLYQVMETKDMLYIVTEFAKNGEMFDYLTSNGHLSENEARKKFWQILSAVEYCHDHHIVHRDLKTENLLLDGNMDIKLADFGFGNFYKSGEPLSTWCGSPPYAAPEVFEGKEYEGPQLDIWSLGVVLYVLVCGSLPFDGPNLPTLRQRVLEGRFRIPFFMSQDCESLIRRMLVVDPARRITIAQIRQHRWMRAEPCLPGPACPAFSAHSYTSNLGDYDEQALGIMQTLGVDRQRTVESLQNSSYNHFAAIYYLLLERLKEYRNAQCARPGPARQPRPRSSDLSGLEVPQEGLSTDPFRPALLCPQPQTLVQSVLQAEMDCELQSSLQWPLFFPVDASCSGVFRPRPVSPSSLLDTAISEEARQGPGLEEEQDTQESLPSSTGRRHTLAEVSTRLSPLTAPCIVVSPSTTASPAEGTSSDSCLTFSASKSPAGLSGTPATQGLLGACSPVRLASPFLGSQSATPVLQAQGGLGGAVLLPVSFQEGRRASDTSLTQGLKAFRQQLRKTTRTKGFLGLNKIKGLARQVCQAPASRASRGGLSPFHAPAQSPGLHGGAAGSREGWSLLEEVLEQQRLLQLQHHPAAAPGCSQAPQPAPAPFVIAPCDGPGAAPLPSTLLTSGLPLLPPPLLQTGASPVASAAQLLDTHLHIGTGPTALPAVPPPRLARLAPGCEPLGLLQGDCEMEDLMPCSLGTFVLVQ
Chain of CHEK2 (O96017 whole entry): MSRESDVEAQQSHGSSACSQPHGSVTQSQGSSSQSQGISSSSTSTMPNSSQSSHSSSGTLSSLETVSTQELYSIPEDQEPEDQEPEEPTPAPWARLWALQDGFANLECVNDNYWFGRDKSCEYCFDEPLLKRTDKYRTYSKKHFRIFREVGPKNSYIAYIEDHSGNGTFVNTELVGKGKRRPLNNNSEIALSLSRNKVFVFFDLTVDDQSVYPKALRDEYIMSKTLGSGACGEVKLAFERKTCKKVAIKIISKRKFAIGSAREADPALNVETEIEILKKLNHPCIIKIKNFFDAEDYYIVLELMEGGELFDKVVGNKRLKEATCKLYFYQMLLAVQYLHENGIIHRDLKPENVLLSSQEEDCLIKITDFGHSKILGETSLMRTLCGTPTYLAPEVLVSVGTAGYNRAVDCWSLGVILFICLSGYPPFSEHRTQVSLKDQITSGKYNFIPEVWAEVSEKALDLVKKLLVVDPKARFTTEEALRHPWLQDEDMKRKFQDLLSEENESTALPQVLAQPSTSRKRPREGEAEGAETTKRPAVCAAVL
Chain of ROCK2 (O75116 whole entry): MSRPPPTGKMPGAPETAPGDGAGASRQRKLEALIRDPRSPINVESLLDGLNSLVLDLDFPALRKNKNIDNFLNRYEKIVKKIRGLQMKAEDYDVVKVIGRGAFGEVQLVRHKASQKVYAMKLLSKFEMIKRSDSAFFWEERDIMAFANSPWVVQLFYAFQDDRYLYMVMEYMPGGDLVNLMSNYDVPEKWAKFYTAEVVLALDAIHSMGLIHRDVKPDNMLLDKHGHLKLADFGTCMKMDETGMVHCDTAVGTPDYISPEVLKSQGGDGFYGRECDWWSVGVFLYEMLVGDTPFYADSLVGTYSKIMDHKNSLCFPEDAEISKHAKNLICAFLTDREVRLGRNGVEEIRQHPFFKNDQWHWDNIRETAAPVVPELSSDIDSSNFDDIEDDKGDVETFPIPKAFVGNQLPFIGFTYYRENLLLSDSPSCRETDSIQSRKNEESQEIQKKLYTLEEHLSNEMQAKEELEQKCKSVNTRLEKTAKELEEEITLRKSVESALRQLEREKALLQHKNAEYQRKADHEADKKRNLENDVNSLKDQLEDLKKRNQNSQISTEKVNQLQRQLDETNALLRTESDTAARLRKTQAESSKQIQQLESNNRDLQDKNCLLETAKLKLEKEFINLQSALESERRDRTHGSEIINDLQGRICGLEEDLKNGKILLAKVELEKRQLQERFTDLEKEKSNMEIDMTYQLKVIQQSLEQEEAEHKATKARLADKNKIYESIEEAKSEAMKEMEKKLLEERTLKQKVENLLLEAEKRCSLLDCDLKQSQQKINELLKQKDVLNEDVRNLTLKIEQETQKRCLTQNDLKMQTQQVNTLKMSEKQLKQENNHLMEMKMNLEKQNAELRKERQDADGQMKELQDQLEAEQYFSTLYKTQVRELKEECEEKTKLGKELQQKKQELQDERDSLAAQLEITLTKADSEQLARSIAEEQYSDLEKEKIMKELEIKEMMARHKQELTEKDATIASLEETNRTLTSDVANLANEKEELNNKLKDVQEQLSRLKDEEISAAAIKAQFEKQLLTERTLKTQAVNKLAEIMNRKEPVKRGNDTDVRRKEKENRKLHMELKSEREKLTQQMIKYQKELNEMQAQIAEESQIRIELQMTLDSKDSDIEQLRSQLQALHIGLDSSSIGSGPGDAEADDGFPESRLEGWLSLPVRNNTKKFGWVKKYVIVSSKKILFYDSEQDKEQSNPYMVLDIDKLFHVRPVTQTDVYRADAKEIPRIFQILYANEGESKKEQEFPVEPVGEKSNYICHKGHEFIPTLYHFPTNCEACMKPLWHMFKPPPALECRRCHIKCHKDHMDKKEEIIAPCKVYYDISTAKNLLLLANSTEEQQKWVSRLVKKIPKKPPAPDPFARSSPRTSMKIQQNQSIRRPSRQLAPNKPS
Chain of BRAF(V600E) (P15056 whole entry V600E): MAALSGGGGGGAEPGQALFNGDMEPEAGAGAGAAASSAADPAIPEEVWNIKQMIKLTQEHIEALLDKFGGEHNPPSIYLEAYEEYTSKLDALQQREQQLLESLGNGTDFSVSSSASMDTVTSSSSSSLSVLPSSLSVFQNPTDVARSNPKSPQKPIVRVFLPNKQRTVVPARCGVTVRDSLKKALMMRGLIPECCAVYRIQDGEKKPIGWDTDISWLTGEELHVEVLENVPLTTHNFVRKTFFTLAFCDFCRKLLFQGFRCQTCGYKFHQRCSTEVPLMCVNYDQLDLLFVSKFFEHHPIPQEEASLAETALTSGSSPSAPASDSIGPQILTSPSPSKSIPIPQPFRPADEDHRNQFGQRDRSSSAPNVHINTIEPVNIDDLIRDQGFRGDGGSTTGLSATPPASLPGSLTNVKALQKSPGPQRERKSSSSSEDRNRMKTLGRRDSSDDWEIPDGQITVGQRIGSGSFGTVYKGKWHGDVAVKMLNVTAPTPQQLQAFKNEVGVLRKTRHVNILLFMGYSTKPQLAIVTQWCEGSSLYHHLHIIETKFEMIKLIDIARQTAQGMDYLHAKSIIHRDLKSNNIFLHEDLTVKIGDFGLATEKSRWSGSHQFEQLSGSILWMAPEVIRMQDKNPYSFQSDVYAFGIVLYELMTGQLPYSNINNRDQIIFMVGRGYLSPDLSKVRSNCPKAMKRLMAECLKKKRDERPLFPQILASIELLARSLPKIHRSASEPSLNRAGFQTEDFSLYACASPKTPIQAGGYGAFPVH
Chain of MET(M1250T) (P08581 whole entry M1250T): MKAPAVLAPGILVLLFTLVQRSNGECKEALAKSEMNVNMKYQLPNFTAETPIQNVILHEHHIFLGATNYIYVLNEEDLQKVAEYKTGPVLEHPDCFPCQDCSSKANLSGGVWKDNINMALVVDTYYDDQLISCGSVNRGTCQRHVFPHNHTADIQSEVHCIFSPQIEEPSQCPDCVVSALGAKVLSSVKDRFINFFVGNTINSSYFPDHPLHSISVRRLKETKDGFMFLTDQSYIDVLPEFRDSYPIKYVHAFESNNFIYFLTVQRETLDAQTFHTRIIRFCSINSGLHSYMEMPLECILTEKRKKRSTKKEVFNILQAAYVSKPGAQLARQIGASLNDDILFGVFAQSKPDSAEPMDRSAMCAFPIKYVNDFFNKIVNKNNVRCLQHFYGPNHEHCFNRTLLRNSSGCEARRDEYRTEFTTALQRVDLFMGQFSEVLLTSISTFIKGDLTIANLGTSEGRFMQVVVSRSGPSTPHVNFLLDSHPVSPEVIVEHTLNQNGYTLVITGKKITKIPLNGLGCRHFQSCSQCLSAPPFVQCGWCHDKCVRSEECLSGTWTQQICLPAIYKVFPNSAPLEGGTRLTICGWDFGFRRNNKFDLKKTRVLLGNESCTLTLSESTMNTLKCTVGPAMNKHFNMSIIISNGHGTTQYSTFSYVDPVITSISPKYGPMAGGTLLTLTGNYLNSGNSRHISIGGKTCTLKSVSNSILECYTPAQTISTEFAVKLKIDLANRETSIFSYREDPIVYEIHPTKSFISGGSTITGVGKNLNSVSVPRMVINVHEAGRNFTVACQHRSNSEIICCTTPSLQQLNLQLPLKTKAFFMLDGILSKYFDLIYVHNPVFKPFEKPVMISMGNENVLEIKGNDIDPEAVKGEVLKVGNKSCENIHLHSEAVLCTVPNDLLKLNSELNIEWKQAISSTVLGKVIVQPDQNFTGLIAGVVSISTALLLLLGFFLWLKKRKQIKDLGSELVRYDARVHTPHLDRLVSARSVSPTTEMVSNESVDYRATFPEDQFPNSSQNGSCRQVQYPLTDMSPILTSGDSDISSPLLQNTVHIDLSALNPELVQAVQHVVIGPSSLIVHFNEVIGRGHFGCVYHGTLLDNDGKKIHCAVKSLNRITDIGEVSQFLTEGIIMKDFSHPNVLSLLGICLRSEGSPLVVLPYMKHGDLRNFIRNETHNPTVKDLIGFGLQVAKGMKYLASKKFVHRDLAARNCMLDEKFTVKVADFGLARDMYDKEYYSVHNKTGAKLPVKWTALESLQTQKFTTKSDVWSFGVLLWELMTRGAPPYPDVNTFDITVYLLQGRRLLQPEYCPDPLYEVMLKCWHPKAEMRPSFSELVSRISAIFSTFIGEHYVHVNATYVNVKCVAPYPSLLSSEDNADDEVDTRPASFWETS

Compound: NC(=O)c1cccc2cn(-c3ccc([C@@H]4CCCNC4)cc3)nc12 [Niraparib]
- percent of control binding at 10 µM (ABL2; [1]): 85%
- percent of control binding at 10 µM (AXL; [1]): 59%
- percent of control binding at 10 µM (BRAF(V600E); [1]): 100%
- percent of control binding at 10 µM (CHEK2; [1]): 89%
- percent of control binding at 10 µM (ICK; [1]): 63%
- percent of control binding at 10 µM (MET(M1250T); [1]): 91%
- percent of control binding at 10 µM (NLK; [1]): 100%
- percent of control binding at 10 µM (ROCK2; [1]): 73%
- percent of control binding at 10 µM (SIK; [1]): 93%

- percent of control binding at 10 µM (ABL2; [2]): 100%
- percent of control binding at 10 µM (AXL; [2]): 100%
- percent of control binding at 10 µM (BRAF(V600E); [2]): 87%
- percent of control binding at 10 µM (CHEK2; [2]): 94%
- percent of control binding at 10 µM (ICK; [2]): 92%
- percent of control binding at 10 µM (MET(M1250T); [2]): 99%
- percent of control binding at 10 µM (NLK; [2]): 85%
- percent of control binding at 10 µM (ROCK2; [2]): 75%
- percent of control binding at 10 µM (SIK; [2]): 95%
Compound: O=C(c1cc(Cc2n[nH]c(=O)c3ccccc23)ccc1F)N1CCN(C(=O)C2CC2)CC1 [Olaparib]

- percent of control binding at 10 µM (ABL2; [3]): 100%
- percent of control binding at 10 µM (AXL; [3]): 82%
- percent of control binding at 10 µM (BRAF(V600E); [3]): 73%
- percent of control binding at 10 µM (CHEK2; [3]): 76%
- percent of control binding at 10 µM (ICK; [3]): 64%
- percent of control binding at 10 µM (MET(M1250T); [3]): 99%
- percent of control binding at 10 µM (NLK; [3]): 78%
- percent of control binding at 10 µM (ROCK2; [3]): 85%
- percent of control binding at 10 µM (SIK; [3]): 87%
Compound: CNCc1ccc(-c2[nH]c3cc(F)cc4c3c2CCNC4=O)cc1 [Rucaparib]

- percent of control binding at 10 µM (ABL2; [4]): 93%
- percent of control binding at 10 µM (AXL; [4]): 100%
- percent of control binding at 10 µM (BRAF(V600E); [4]): 68%
- percent of control binding at 10 µM (CHEK2; [4]): 93%
- percent of control binding at 10 µM (ICK; [4]): 71%
- percent of control binding at 10 µM (MET(M1250T); [4]): 99%
- percent of control binding at 10 µM (NLK; [4]): 100%
- percent of control binding at 10 µM (ROCK2; [4]): 100%
- percent of control binding at 10 µM (SIK; [4]): 78%
Compound: Cn1ncnc1[C@H]1c2n[nH]c(=O)c3cc(F)cc(c23)N[C@@H]1c1ccc(F)cc1 [Talazoparib]
